Read-outs that look alike come from different tables or passages of the source.

This passage reports pest or weed control results from US10172358B2, “Thiopicolinamide compounds with fungicidal activity” (Dow AgroSciences LLC, priority 2016, dated 2019).

The test system of one assay is Zymoseptoria tritici. Nature of the assay: Fungicidal activity: leaf blotch of wheat (SEPTTR), disease control on wheat seedlings. In kind it is in vivo, Zymoseptoria tritici on wheat plants (variety Yuma). The conditions noted are these: for pest or weed control at 121.5 g/ha: low volume application, 121.5 g/H; for pest or weed control at 100 ppm: high volume application. The protocol:
Evaluation of Fungicidal Activity: Leaf Blotch of Wheat (Zymoseptoria Tritici; Bayer Code […]) Technical grades of materials were dissolved in acetone, which were then mixed with nine volumes of water (H2O) containing 110 ppm Triton X-100. The fungicide solutions were applied onto wheat seedlings using an automated booth sprayer to run-off. All sprayed plants were allowed to air dry prior to further handling. All fungicides were evaluated using the aforementioned method for their activity vs. all target diseases, unless stated otherwise. Wheat leaf blotch and brown rust activity were also evaluated using track spray applications, in which case the fungicides were formulated as EC formulations, containing 0.1% Trycol 5941 in the spray solutions. Wheat plants (variety Yuma) were grown from seed in a greenhouse in 50% mineral soil/50% soil-less Metro mix until the first leaf was fully emerged, with 7-10 seedlings per pot. These plants were inoculated with an aqueous spore suspension of Zymoseptoria tritici either prior to or after fungicide treatments. After inoculation the plants were kept in 100% relative humidity (one day in a dark dew chamber followed by two to three days in a lighted dew chamber at 20° C.) to permit spores to germinate and infect the leaf. The plants were then transferred to a greenhouse set at 20° C. for disease to develop. When disease symptoms were fully expressed on the 1st leaves of untreated plants, infection levels were assessed on a scale of 0 to 100 percent disease severity. Percent disease control was calculated using the ratio of disease severity on treated plants relative to untreated plants.

A further assay deals with Phakopsora pachyrhizi. The assay can be described thus: Fungicidal activity: Asian soybean rust (PHAKPA), disease control on soybean seedlings. It is filed as in vivo. The protocol: Evaluation of Fungicidal Activity: Asian Soybean Rust (Phakopsora Pachyrhizi; Bayer Code PHAKPA)
Technical grades of materials were dissolved in acetone, which were then mixed with nine volumes of H2O containing 0.011% Tween 20. The fungicide solutions were applied onto soybean seedlings using an automated booth sprayer to run-off. All sprayed plants were allowed to air dry prior to further handling.
Soybean plants (variety Williams 82) were grown in soil-less Metro mix, with one plant per pot. Two weeks old seedlings were used for testing. Plants were inoculated either 3 days prior to or 1 day after fungicide treatments. Plants were incubated for 24 h in a dark dew room at 22° C. and 100% relative humidity then transferred to a growth room at 23° C. for disease to develop. Disease severity was assessed on the sprayed leaves.

A further assay has as its system Puccinia triticina. The assay can be described thus: Fungicidal activity: wheat brown rust (PUCCRT), disease control on wheat seedlings. In kind it is in vivo, Puccinia triticina on wheat plants (variety Yuma). The note with it: for pest or weed control at 121.5 g/ha: low volume application, 121.5 g/H; for pest or weed control at 100 ppm: high volume application. The procedure: Technical grades of materials were dissolved in acetone, which were then mixed with nine volumes of water (H2O) containing 110 ppm Triton X-100. The fungicide solutions were applied onto wheat seedlings using an automated booth sprayer to run-off. All sprayed plants were allowed to air dry prior to further handling. All fungicides were evaluated using the aforementioned method for their activity vs. all target diseases, unless stated otherwise. Wheat leaf blotch and brown rust activity were also evaluated using track spray applications, in which case the fungicides were formulated as EC formulations, containing 0.1% Trycol 5941 in the spray solutions. Evaluation of Fungicidal Activity: Wheat Brown Rust (Puccinia triticina; Synonym: Puccinia recondita f. Sp. Tritici; Bayer Code PUCCRT) Wheat plants (variety Yuma) were grown from seed in a greenhouse in 50% mineral soil/50% soil-less Metro mix until the first leaf was fully emerged, with 7-10 seedlings per pot. These plants were inoculated with an aqueous spore suspension of Puccinia triticina either prior to or after fungicide treatments. After inoculation the plants were kept in a dark dew room at 22° C. with 100% relative humidity overnight to permit spores to germinate and infect the leaf. The plants were then transferred to a greenhouse set at 24° C. for disease to develop. Fungicide formulation, application and disease assessment followed the procedures as described in the Example A. The results of the evalution are shown below in Table 4.

Setting [1] is: 24 h, 1 day protectant, read-out: SEPTTR 1DP disease control, LV activity at 121.5 g/H.
Where [2] appears, read: 72 h, 3 day curative, read-out: SEPTTR 3DC disease control, LV activity at 121.5 g/H.
Setting [3] is: 24 h, 1 day protectant, read-out: PHAKPA 1DP disease control at 25 ppm.
Where [4] appears, read: 72 h, 3 day curative, read-out: PHAKPA 3DC disease control at 25 ppm.
[5] abbreviates: 24 h, 1 day protectant, read-out: PUCCRT 1DP disease control, LV activity at 121.5 g/H.
The mark [6] stands for this setting: 72 h, 3 day curative, read-out: PUCCRT 3DC disease control, LV activity at 121.5 g/H.
The mark [7] stands for this setting: 24 h, 1 day protectant, read-out: SEPTTR 1DP disease control, HV activity at 100 ppm.
Setting [8] is: 72 h, 3 day curative, read-out: SEPTTR 3DC disease control, HV activity at 100 ppm.
Setting [9] is: 24 h, 1 day protectant, read-out: PUCCRT 1DP disease control, HV activity at 100 ppm.
Where [10] appears, read: 72 h, 3 day curative, read-out: PUCCRT 3DC disease control, HV activity at 100 ppm.

Regarding `COc1ccnc(C(=S)N[C@@H](C)C(=O)O[C@H](C(C)C)[C@H](C)Oc2ccccc2)c1OC(C)=O` [Compound 61], the pest or weed control at 121.5 g/ha is at most 80% in the assay on Zymoseptoria tritici (setting [1]), above 80% with Zymoseptoria tritici (setting [2]), above 80% in the assay on Puccinia triticina (setting [5]) and above 80% with Puccinia triticina (setting [6]). Besides, the pest or weed control at 25 ppm in the assay on Phakopsora pachyrhizi (setting [3]) and in the assay on Phakopsora pachyrhizi (setting [4]) was above 80% each time.

As for `CC[C@H](OC(=O)[C@H](C)NC(=S)c1nccc(OC)c1OC(C)=O)[C@@H](C)Oc1ccccc1` [Compound 66], the pest or weed control at 25 ppm in the assay on Phakopsora pachyrhizi (setting [3]) and in the assay on Phakopsora pachyrhizi (setting [4]) was at most 80% each time. For the same compound, the pest or weed control at 121.5 g/ha in the assay on Puccinia triticina (setting [5]) and in the assay with Puccinia triticina (setting [6]) was at most 80% in each case.

On to `COc1ccnc(C(=S)N[C@@H](C)C(=O)O[C@H](CC(C)C)[C@H](C)Oc2ccccc2)c1OC(C)=O` [Compound 40], for which the pest or weed control at 25 ppm in the assay on Phakopsora pachyrhizi (setting [3]) is at most 80%. Also, in the assay on Puccinia triticina (setting [6]), the pest or weed control at 121.5 g/ha was at most 80%.

Regarding `COc1ccnc(C(=S)N[C@@H](C)C(=O)O[C@@H](C)[C@H](Oc2ccccc2Cl)c2ccccc2)c1OC(C)=O` [Compound 57, (1R,2S)-1-(2-chlorophenoxy)-1-phenylpropan-2-yl (3-acetoxy-4-methoxypyridine-2-carbonothioyl)-L-alaninate], the pest or weed control at 121.5 g/ha was above 80% in the assay with Zymoseptoria tritici (setting [1]), above 80% with Zymoseptoria tritici (setting [2]), above 80% in the assay with Puccinia triticina (setting [5]) and at most 80% in the assay with Puccinia triticina (setting [6]).

Turning to `COc1ccnc(C(=S)N[C@@H](C)C(=O)O[C@@H](C)[C@@H](c2ccc(C)cc2)c2ccc(F)cc2C)c1O` [Compound 6], the pest or weed control at 100 ppm in the assay with Zymoseptoria tritici (setting [7]) was above 80%; with Zymoseptoria tritici (setting [8]) it was above 80%; in the assay on Puccinia triticina (setting [9]), above 80%; in the assay on Puccinia triticina (setting [10]), at most 80%.

Regarding `C=CC[C@@H](Oc1ccccc1)[C@H](C)OC(=O)[C@H](C)NC(=S)c1nccc(OC)c1OC(C)=O` [Compound 60], the pest or weed control at 121.5 g/ha was at most 80% with Zymoseptoria tritici (setting [1]), at most 80% in the assay on Zymoseptoria tritici (setting [2]), above 80% with Puccinia triticina (setting [5]) and above 80% in the assay with Puccinia triticina (setting [6]).

Turning to `COc1ccnc(C(=S)N[C@@H](C)C(=O)O[C@@H](C)[C@H](Oc2ccc(Cl)cc2Cl)c2ccccc2)c1O` [Compound 9], the pest or weed control at 100 ppm in the assay on Zymoseptoria tritici (setting [7]), with Zymoseptoria tritici (setting [8]) and with Puccinia triticina (setting [9]) was above 80% throughout.

With `COc1ccccc1C(c1ccccc1OC)[C@H](C)OC(=O)[C@H](C)NC(=S)c1nccc(OC)c1O` [Compound 13], the pest or weed control at 100 ppm in the assay on Zymoseptoria tritici (setting [7]) is above 80%; in the assay on Zymoseptoria tritici (setting [8]), above 80%; in the assay on Puccinia triticina (setting [9]), above 80%; in the assay with Puccinia triticina (setting [10]) it was at most 80%.

On to `COc1ccnc(C(=S)N[C@@H](C)C(=O)O[C@@H](C)C(c2ccc(C)cc2)c2ccc(C)cc2)c1OC(C)=O` [Compound 50], for which the pest or weed control at 121.5 g/ha in the assay on Zymoseptoria tritici (setting [1]), in the assay on Zymoseptoria tritici (setting [2]), with Puccinia triticina (setting [5]) and in the assay on Puccinia triticina (setting [6]) was above 80% each time.

Turning to `COc1ccnc(C(=S)N[C@@H](C)C(=O)O[C@@H](C)[C@H](Oc2ccccc2Cl)c2ccccc2)c1O` [Compound 22, (1R,2S)-1-(2-chlorophenoxy)-1-phenylpropan-2-yl (3-hydroxy-4-methoxypyridine-2-carbonothioyl)-L-alaninate], the pest or weed control at 100 ppm was above 80% with Zymoseptoria tritici (setting [7]), at most 80% in the assay with Zymoseptoria tritici (setting [8]), above 80% in the assay on Puccinia triticina (setting [9]) and at most 80% in the assay on Puccinia triticina (setting [10]).

Consider `COc1ccc(O[C@@H](C)[C@H](OC(=O)[C@H](C)NC(=S)c2nccc(OC)c2OC(C)=O)C(C)C)cc1` [Compound 58], for which the pest or weed control at 121.5 g/ha in the assay on Zymoseptoria tritici (setting [1]), with Zymoseptoria tritici (setting [2]), with Puccinia triticina (setting [5]) and in the assay on Puccinia triticina (setting [6]) was above 80% throughout.

Turning to `COc1ccnc(C(=S)N[C@@H](C)C(=O)O[C@@H](C)C(c2ccc(C)cc2C)c2ccc(C)cc2C)c1O` [Compound 3], the pest or weed control at 100 ppm with Zymoseptoria tritici (setting [7]), in the assay on Zymoseptoria tritici (setting [8]) and with Puccinia triticina (setting [9]) was above 80% throughout.

As to `COc1ccnc(C(=S)N[C@@H](C)C(=O)O[C@@H](C)[C@H](Oc2ccc(Cl)cc2Cl)c2ccccc2)c1OC(C)=O` [Compound 49], the pest or weed control at 121.5 g/ha in the assay on Zymoseptoria tritici (setting [1]) and with Puccinia triticina (setting [5]) was at most 80% each time.

On to `COc1ccnc(C(=S)N[C@@H](C)C(=O)O[C@H](C(C)C)[C@H](C)Oc2ccccc2)c1O` [Compound 19], for which the pest or weed control at 100 ppm in the assay on Zymoseptoria tritici (setting [7]), in the assay on Puccinia triticina (setting [9]) and in the assay with Puccinia triticina (setting [10]) was above 80% in each case.

Take `COc1ccnc(C(=S)N[C@@H](C)C(=O)O[C@@H](C)C(c2ccc(F)cc2)c2ccc(F)cc2)c1O` [Compound 39]: the pest or weed control at 100 ppm is above 80% in the assay with Zymoseptoria tritici (setting [7]), above 80% in the assay on Zymoseptoria tritici (setting [8]), at most 80% in the assay on Puccinia triticina (setting [9]) and at most 80% in the assay on Puccinia triticina (setting [10]).

With `COc1cc(Cl)ccc1C(c1ccc(Cl)cc1OC)[C@H](C)OC(=O)[C@H](C)NC(=S)c1nccc(OC)c1O` [Compound 14], the pest or weed control at 100 ppm in the assay with Zymoseptoria tritici (setting [7]) was above 80%; in the assay with Zymoseptoria tritici (setting [8]) it was above 80%; with Puccinia triticina (setting [9]), above 80%; in the assay on Puccinia triticina (setting [10]), at most 80%.

For `COc1ccnc(C(=S)N[C@@H](C)C(=O)O[C@@H](C)C(c2ccc(C)cc2)c2ccc(C)cc2)c1O` [Compound 20], the pest or weed control at 100 ppm with Zymoseptoria tritici (setting [7]) was above 80%; with Zymoseptoria tritici (setting [8]), above 80%; in the assay on Puccinia triticina (setting [9]) it was above 80%; in the assay on Puccinia triticina (setting [10]) it was at most 80%.

With `COc1ccnc(C(=S)N[C@@H](C)C(=O)O[C@@H](C)[C@@H](c2ccccc2)c2ccc(F)cc2)c1OC(C)=O` [Compound 51], the pest or weed control at 121.5 g/ha is above 80% in the assay on Zymoseptoria tritici (setting [1]), above 80% in the assay on Zymoseptoria tritici (setting [2]), above 80% with Puccinia triticina (setting [5]) and at most 80% with Puccinia triticina (setting [6]).

In the case of `CCCCC[C@@H](OC(=O)[C@H](C)NC(=S)c1nccc(OC)c1CC(C)=O)[C@H](C)Oc1ccccc1` [Compound 41], the pest or weed control at 121.5 g/ha in the assay on Zymoseptoria tritici (setting [1]), with Zymoseptoria tritici (setting [2]), in the assay with Puccinia triticina (setting [5]) and with Puccinia triticina (setting [6]) was above 80% in each case.

`CCC[C@H](OC(=O)[C@H](C)NC(=S)c1nccc(OC)c1OC(C)=O)[C@@H](C)Oc1ccccc1` [Compound 76]: in the assay with Phakopsora pachyrhizi (setting [3]), the pest or weed control at 25 ppm was at most 80%.

For the compound `COc1ccnc(C(=S)N[C@@H](C)C(=O)O[C@@H](C)C(c2ccc(Cl)cc2)c2ccc(Cl)cc2)c1O` [Compound 2], the pest or weed control at 100 ppm in the assay with Zymoseptoria tritici (setting [7]), in the assay on Zymoseptoria tritici (setting [8]) and in the assay on Puccinia triticina (setting [9]) was above 80% in each case.

Consider `COc1ccnc(C(=S)N[C@@H](C)C(=O)O[C@@H](C)[C@H](Oc2ccc(Cl)cc2)C(C)C)c1O` [Compound 17], for which the pest or weed control at 100 ppm in the assay on Zymoseptoria tritici (setting [7]) was at most 80%; with Puccinia triticina (setting [9]), above 80%.
